# Measurements from publication PMC11604048, “Constrained TACC3 peptidomimetics for a non-canonical protein–protein interface elucidate allosteric communication in Aurora-A kinase” (Chemical Science, 2024).
# Like-named read-outs stand apart in the source and are kept apart here. *1 amine or outer side, *2 acyl side, *3 side chain or, on linkers, in order; H or OH if unused. Where a SMILES comes first, the peptide text is derived from it. Bridges are numbered along the chain shown (N, C = ends). [ ]: non-standard residue; d: D form. Biphenyl(4,4'-CH2)2 = c1cc(-c2ccc(C[*:2])cc2)ccc1C[*:1]; Maleimide(3,4-diyl) = O=C1NC(=O)C([*:2])=C1[*:1]; Pro(trans-4-F) = O=C(O)[C@@H]1C[C@@H](F)CN1; Phe(4-Br) = N[C@@H](Cc1ccc(Br)cc1)C(=O)O
# Target: T1, Aurora-A122-403-C290A/C393A (Homo sapiens, UniProt O14965, C290A/C393A)
# T1 construct: Human Aurora-A kinase domain 122-403 wild-type or C290A/ C393A mutant; His tag (pET30TEV vector) (N, cleaved yes); made in house; host or cells: E. coli RIL, co-expressed with lambda phosphatase (Aurora-A); tracer by solid phase synthesis
# T1 sequence (O14965 122-403 C290A/C393A): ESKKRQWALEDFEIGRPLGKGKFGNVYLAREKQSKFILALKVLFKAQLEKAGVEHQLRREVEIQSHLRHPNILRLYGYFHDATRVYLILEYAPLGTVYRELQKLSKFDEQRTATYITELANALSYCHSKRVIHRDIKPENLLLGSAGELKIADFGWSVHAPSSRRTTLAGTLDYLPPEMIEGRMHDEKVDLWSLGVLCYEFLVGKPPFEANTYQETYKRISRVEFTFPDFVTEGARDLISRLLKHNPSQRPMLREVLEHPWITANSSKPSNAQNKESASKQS
# Assay: Competition FA assay against FAM-Ahx-TACC3 522-536 tracer
# Format: binding
# [1] = as E1, free-sulfhydryl (reduced) species, DTT 5 mM in buffer, WT control (+DTT), mean ± SD, n = 3, read-out: IC50 (red)
# [2] = as E1, oxidised (disulfide) species made in situ from 10 mM stock in aqueous DMSO 33% v/v, air, overnight, WT control (+DMSO) given the same DMSO incubation, mean ± SD, n = 3, read-out: IC50 (ox)
# [3] = as E1, Table S3 (mal): maleimide-constrained species, WT value is an individual replica control assay, mean ± SD, n = 3, SD, read-out: IC50 (mal)
molecule,measurement,setting,value
CC(=O)N[C@@H](CCC(=O)O)C(=O)N[C@@H](CCC(=O)O)C(=O)N[C@@H](CO)C(=O)N[C@@H](CS)C(=O)N[C@@H](CCCNC(=N)N)C(=O)N[C@@H](CC(=O)O)C(=O)N[C@@H](CS)C(=O)N[C@@H](C)C(=O)N[C@@H](CCC(=O)O)C(=O)N[C@H](C(=O)N[C@@H](CC(C)C)C(=O)NCC(=O)N[C@H](C(=O)NCC(=O)N[C@@H](C)C(N)=O)[C@@H](C)O)C(C)C [TACC3 522-536 F525C/P528C (red)] (Ac-EESCRDCAEVLGTGA-NH2),IC50,[1],≥ 500 µM
CC(=O)N[C@@H](CCC(=O)O)C(=O)N[C@@H](CCC(=O)O)C(=O)N[C@@H](CO)C(=O)N[C@@H](Cc1ccccc1)C(=O)N[C@@H](CCCNC(=N)N)C(=O)N[C@@H](CC(=O)O)C(=O)N1CCC[C@H]1C(=O)N[C@@H](C)C(=O)N[C@@H](CCC(=O)O)C(=O)N[C@H](C(=O)N[C@@H](CC(C)C)C(=O)N[C@H]1CSSC[C@@H](C(N)=O)NC(=O)CNC(=O)[C@H]([C@@H](C)O)NC1=O)C(C)C [TACC3 522-536 G533C/A536C (ox)] (Ac-EESFRDPAEVLCTGC-NH2; disulfide 12-15),IC50,[2],≥ 500 µM
CC(=O)N[C@@H](CCC(=O)O)C(=O)N[C@@H](CCC(=O)O)C(=O)N[C@@H](CS)C(=O)N[C@@H](Cc1ccccc1)C(=O)N[C@@H](CCCNC(=N)N)C(=O)N[C@@H](CS)C(=O)N1CCC[C@H]1C(=O)N[C@@H](C)C(=O)N[C@@H](CCC(=O)O)C(=O)N[C@H](C(=O)N[C@@H](CC(C)C)C(=O)NCC(=O)N[C@H](C(=O)NCC(=O)N[C@@H](C)C(N)=O)[C@@H](C)O)C(C)C [TACC3 522-536 S524C/D527C (red)] (Ac-EECFRCPAEVLGTGA-NH2),IC50,"as E1, free-sulfhydryl (reduced) species, DTT 5 mM in buffer, WT control (+DTT), mean ± SD, n = 3, SD, read-out: IC50 (red)",309 ± 38 µM
"CC(=O)N[C@@H](CCC(=O)O)C(=O)N[C@@H](CCC(=O)O)C(=O)N[C@@H](CO)C(=O)N[C@@H](Cc1ccccc1)C(=O)N[C@@H](CCCNC(=N)N)C(=O)N[C@@H](CC(=O)O)C(=O)N1CCC[C@H]1C(=O)N[C@@H](C)C(=O)N[C@@H](CCC(=O)O)C(=O)N[C@H]1CSC2=C(SC[C@@H](C(=O)NCC(=O)N[C@@H](C)C(N)=O)NC(=O)CNC(=O)[C@H](CC(C)C)NC1=O)C(=O)NC2=O [TACC3 522-536 V531C/T534C (mal)] (Ac-EESFRDPAECLGCGA-NH2; linker 10-13 via Maleimide(3,4-diyl))",IC50,[3],412 ± 73 µM
CC(=O)N[C@@H](CCC(=O)O)C(=O)N[C@@H](CCC(=O)O)C(=O)N[C@@H](CO)C(=O)N[C@@H](Cc1ccccc1)C(=O)N[C@H]1CSSC[C@@H](C(=O)N[C@@H](CCC(=O)O)C(=O)N[C@H](C(=O)N[C@@H](CC(C)C)C(=O)NCC(=O)N[C@H](C(=O)NCC(=O)N[C@@H](C)C(N)=O)[C@@H](C)O)C(C)C)NC(=O)[C@@H]2CCCN2C(=O)[C@H](CC(=O)O)NC1=O [TACC3 522-536 R526C/A529C (ox)] (Ac-EESFCDPCEVLGTGA-NH2; disulfide 5-8),IC50,[2],≥ 500 µM
"CC(=O)N[C@@H](CCC(=O)O)C(=O)N[C@@H](CCC(=O)O)C(=O)N[C@@H](CO)C(=O)N[C@@H](Cc1ccccc1)C(=O)N[C@@H](CCCNC(=N)N)C(=O)N[C@@H](CC(=O)O)C(=O)N1CCC[C@H]1C(=O)N[C@@H](C)C(=O)N[C@@H](CCC(=O)O)C(=O)N[C@H](C(=O)N[C@H]1CSC2=C(SC[C@@H](C(=O)N[C@@H](C)C(N)=O)NC(=O)[C@H]([C@@H](C)O)NC(=O)CNC1=O)C(=O)NC2=O)C(C)C [TACC3 522-536 L532C/G535C (mal)] (Ac-EESFRDPAEVCGTCA-NH2; linker 11-14 via Maleimide(3,4-diyl))",IC50,[3],480 ± 60 µM
"CC(=O)N[C@@H](CCC(=O)O)C(=O)N[C@@H](CCC(=O)O)C(=O)N[C@@H](CO)C(=O)N[C@@H](Cc1ccccc1)C(=O)N[C@@H](CCCNC(=N)N)C(=O)N[C@@H](CC(=O)O)C(=O)N1CCC[C@H]1C(=O)N[C@H]1CSC2=C(SC[C@@H](C(=O)NCC(=O)N[C@H](C(=O)NCC(=O)N[C@@H](C)C(N)=O)[C@@H](C)O)NC(=O)[C@H](C(C)C)NC(=O)[C@H](CCC(=O)O)NC1=O)C(=O)NC2=O [TACC3 522-536 A529C/L532C (mal)] (Ac-EESFRDPCEVCGTGA-NH2; linker 8-11 via Maleimide(3,4-diyl))",IC50,[3],483 ± 58 µM
CC(=O)N[C@@H](CCC(=O)O)C(=O)N[C@@H](CCC(=O)O)C(=O)N[C@@H](CO)C(=O)N[C@@H](Cc1ccccc1)C(=O)N[C@H]1CSSC[C@@H](C(=O)N[C@@H](CC(C)C)C(=O)NCC(=O)N[C@H](C(=O)NCC(=O)N[C@@H](C)C(N)=O)[C@@H](C)O)NC(=O)[C@H](CCC(=O)O)NC(=O)[C@H](C)NC(=O)[C@@H]2CCCN2C(=O)[C@H](CC(=O)O)NC1=O [TACC3 522-536 R526C/V531C (ox)] (Ac-EESFCDPAECLGTGA-NH2; disulfide 5-10),IC50,[2],≥ 500 µM
CC(=O)N[C@@H](CCC(=O)O)C(=O)N[C@H]1CSSC[C@@H](C(=O)N[C@@H](CC(=O)O)C(=O)N2CCC[C@H]2C(=O)N[C@@H](C)C(=O)N[C@@H](CCC(=O)O)C(=O)N[C@H](C(=O)N[C@@H](CC(C)C)C(=O)NCC(=O)N[C@H](C(=O)NCC(=O)N[C@@H](C)C(N)=O)[C@@H](C)O)C(C)C)NC(=O)[C@H](Cc2ccccc2)NC(=O)[C@H](CO)NC1=O [TACC3 522-536 E523C/R526C (ox)] (Ac-ECSFCDPAEVLGTGA-NH2; disulfide 2-5),IC50,[2],≥ 500 µM
"CC(=O)N[C@@H](CC(C)C)C(=O)N[C@@H](CCC(=O)O)C(=O)N[C@@H](CC(C)C)C(=O)N[C@@H](CCCCN)C(=O)N[C@@H](CCC(=O)O)C(=O)N[C@@H](CCC(=O)O)C(=O)N[C@H]1CSCc2ccc(cc2)-c2ccc(cc2)CSC[C@@H](C(=O)N[C@H](C(=O)N[C@@H](CC(C)C)C(N)=O)C(C)C)NC(=O)[C@H](C)NC(=O)[C@@H]2C[C@@H](F)CN2C(=O)[C@H](CC(=O)O)NC(=O)[C@H](CCCNC(=N)N)NC(=O)[C@H](Cc2ccc(Br)cc2)NC1=O [TACC3 518-532-S/E-Bph-BrF/fP] (Ac-LELKEEC[Phe(4-Br)]RD[Pro(trans-4-F)]ACVL-NH2; linker 7-13 via Biphenyl(4,4'-CH2)2)",IC50,"SD, read-out: IC50",16 ± 1 µM
CC(=O)N[C@@H](CCC(=O)O)C(=O)N[C@@H](CCC(=O)O)C(=O)N[C@@H](CO)C(=O)N[C@@H](Cc1c(F)c(F)c(F)c(F)c1F)C(=O)N[C@@H](CCCNC(=N)N)C(=O)N[C@@H](CC(=O)O)C(=O)N1CCC[C@H]1C(=O)N[C@@H](C)C(=O)N[C@@H](CCC(=O)O)C(=O)N[C@H](C(=O)N[C@@H](CC(C)C)C(=O)NCC(=O)N[C@H](C(=O)NCC(=O)N[C@@H](C)C(N)=O)[C@@H](C)O)C(C)C [TACC3 522-536_5f-525F],IC50,"SD, read-out: IC50",97 ± 10 µM
CC(=O)N[C@@H](CCC(=O)O)C(=O)N[C@@H](CCC(=O)O)C(=O)N[C@@H](CO)C(=O)N[C@H]1CSSC[C@@H](C(=O)N[C@@H](C)C(=O)N[C@@H](CCC(=O)O)C(=O)N[C@H](C(=O)N[C@@H](CC(C)C)C(=O)NCC(=O)N[C@H](C(=O)NCC(=O)N[C@@H](C)C(N)=O)[C@@H](C)O)C(C)C)NC(=O)[C@H](CC(=O)O)NC(=O)[C@H](CCCNC(=N)N)NC1=O [TACC3 522-536 F525C/P528C (ox)] (Ac-EESCRDCAEVLGTGA-NH2; disulfide 4-7),IC50,[2],≥ 500 µM
CC(=O)N[C@@H](CCC(=O)O)C(=O)N[C@@H](CCC(=O)O)C(=O)N[C@@H](CO)C(=O)N[C@@H](Cc1ccccc1)C(=O)N[C@@H](CCCNC(=N)N)C(=O)N[C@@H](CC(=O)O)C(=O)N[C@@H](CS)C(=O)N[C@@H](C)C(=O)N[C@@H](CCC(=O)O)C(=O)N[C@@H](CS)C(=O)N[C@@H](CC(C)C)C(=O)NCC(=O)N[C@H](C(=O)NCC(=O)N[C@@H](C)C(N)=O)[C@@H](C)O [TACC3 522-536 P528C/V531C (red)] (Ac-EESFRDCAECLGTGA-NH2),IC50,[1],≥ 500 µM
Ac-EESFRDPAEILGTGA-NH2 [TACC3 522-536_V531I],IC50,read-out: IC50,≥ 300 µM
